Paper PMC8151276, “An Integrated Approach toward NanoBRET Tracers for Analysis of GPCR Ligand Engagement” (Molecules, 2021)

Legend:
Assay type in all cases: binding
CXCR5 = molecular target: T1, CXCR5 (Homo sapiens, UniProt P32302); experiment: NanoBRET screen HiBiT-CXCR5 in HEK293
T1 construct: purchased Promega (in-house HiBiT-GPCR construct library, NanoBRET)
T1 sequence (P32302 1-372): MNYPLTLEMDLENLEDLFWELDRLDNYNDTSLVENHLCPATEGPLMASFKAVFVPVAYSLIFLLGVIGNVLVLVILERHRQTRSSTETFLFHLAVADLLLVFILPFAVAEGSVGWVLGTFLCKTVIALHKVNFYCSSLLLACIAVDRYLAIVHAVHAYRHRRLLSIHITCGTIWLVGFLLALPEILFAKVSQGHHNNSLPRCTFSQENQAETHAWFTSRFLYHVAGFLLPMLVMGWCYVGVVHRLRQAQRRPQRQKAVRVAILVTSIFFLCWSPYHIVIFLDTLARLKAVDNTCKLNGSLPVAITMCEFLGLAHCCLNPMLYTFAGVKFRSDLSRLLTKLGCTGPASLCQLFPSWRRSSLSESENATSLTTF
Procedure: (§1) Each tracer candidate was screened across the entire library of HiBiT-GPCR constructs using NanoBRET as the detection modality. As depicted in Figure 4A, the specificity of interactions was evaluated through decrease in BRET due to competitive displacement of a bound tracer by excess parental compound. Each tracer was analyzed for binding to each HiBiT-GPCR fusion in the absence and in the presence of competing parental compound. Briefly, HEK293 cells were transfected with HiBiT-GPCR constructs diluted into promoterless DNA to reduce expression and maximize translocation to the cell surface. Each tracer candidate was then screened at concentrations of 1 μM and 0.1 μM across cells expressing these fusions. Cells were treated for 1.5 h with tracer either alone or in the presence of 20 μM competing parental compound (i.e., control). BRET was measured upon addition of purified LgBiT and subsequent complementation with HiBiT genetically fused to a GPCR. The specificity of interactions was assessed through a decrease in BRET signal due to competitive displacement of the bound tracer. To further gauge the robustness of these interactions, the fold response over the control (i.e., BRETtracer/BRETcontrol) was calculated. We chose a 1.5-fold response, which translates to ≥7-fold signal over noise as the minimal threshold required to score an interaction as positive. […]. Below we highlight the screening results obtained for our exemplary fluorescent tracers based on Clozapine, Amitriptyline and AZD1283.
(§2) HiBiT-GPCR DNA constructs were diluted in 10 mM Tris pH 8 to a final concentration of 0.01 μg/μL, arrayed in 96-well plates and stored at −20 °C. For transfection, HEK293 cells were suspended in Opti-MEM (without phenol red) supplemented with 2% fetal bovine serum (Seradigm) and 100 units/mL penicillin–streptomycin (Gibco) at a final concentration of 220,000 cells/mL and dispensed into white 96-well plates at 90 μL/well. Subsequent transfections and screens were carried using an Agilent Bravo Automated Liquid Handling Platform. First, the 96-well HiBiT DNA arrays were diluted 25-fold in Opti-MEM (without serum or phenol red) to a final concentration of 0.0004 μg/μL and 20 μL of the diluted DNAs were transferred into new 96-well plates. Next, promoterless carrier DNA (1 μg/μL) was diluted 25-fold (0.04 μg/μL) and then dispensed into the diluted arrays at 20 μL/well. Following brief mixing, Viafect transfection reagent (Promega) diluted 16-fold into Opti-MEM was dispensed into the plates at 40 μL/well. After mixing by pipetting, plates were incubated for 10 min on the pipetting station deck. The DNA-transfection reagent complexes were then added to plates containing cells. To facilitate the screen, 10 μL of DNA-transfection reagent complexes were added in duplicates to the top 4 and bottom 4 rows, resulting in two identical 48-well arrays per plate. Plates with transfected cells were incubated for 18–20 h at 37 °C/5% CO2. A screen of each tracer across the entire library using two different concentrations requires duplicate plates of transfected cells. Depending on the number of tracers being screened, transfections can be scaled up using the same ratios. The next day, for each tracer, four 20× screening solutions in tracer dilution buffer (Promega) were prepared: two duplicates at final concentration of 20 μM and two duplicates at a final concentration of 2 μM. A competing unmodified compound was added to one of each duplicate at a final concentration of 400 μM. The four resulting solutions were diluted 4-fold in Opti-MEM without serum or phenol red to generate 5× solutions (5 µM and 0.5 µM tracer +/− 100 μM competing compound). To screen the library, a BioTek MultiFlo FX liquid dispenser was used to dispense 22.5 µL of tracer solution to the top 4 rows and 22.5 µL tracer + competing compound solution to the 4 bottom rows. Plates were briefly mixed on an orbital shaker and incubated for 1.5 h at room temperature. […]

RXFP3 = molecular target: T2, RXFP3 (Homo sapiens, UniProt Q9NSD7); experiment: NanoBRET screen HiBiT-RXFP3 in HEK293
T2 construct: purchased Promega (in-house HiBiT-GPCR construct library, NanoBRET)
T2 sequence (Q9NSD7 1-469): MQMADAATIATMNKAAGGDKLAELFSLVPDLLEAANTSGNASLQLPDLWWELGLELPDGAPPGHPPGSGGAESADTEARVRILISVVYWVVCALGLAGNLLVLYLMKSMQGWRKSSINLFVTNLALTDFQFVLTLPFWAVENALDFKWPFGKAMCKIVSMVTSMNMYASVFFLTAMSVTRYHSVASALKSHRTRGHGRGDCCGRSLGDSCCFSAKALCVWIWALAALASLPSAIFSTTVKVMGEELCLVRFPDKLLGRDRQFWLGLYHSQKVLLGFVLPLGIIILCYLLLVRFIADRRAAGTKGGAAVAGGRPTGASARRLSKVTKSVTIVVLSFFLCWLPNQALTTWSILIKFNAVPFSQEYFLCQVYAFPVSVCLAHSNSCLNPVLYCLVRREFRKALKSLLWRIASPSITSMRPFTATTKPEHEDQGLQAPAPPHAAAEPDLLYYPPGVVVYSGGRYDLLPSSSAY
Procedure: as §1, §2

P2RY2 = molecular target: T3, P2RY2 (Homo sapiens, UniProt P41231); experiment: NanoBRET screen HiBiT-P2RY2 in HEK293
T3 construct: purchased Promega (in-house HiBiT-GPCR construct library, NanoBRET)
Procedure: as §1, §2

FPR3 = molecular target: T4, FPR3 (Homo sapiens, UniProt P25089); experiment: NanoBRET screen HiBiT-FPR3 in HEK293
T4 construct: purchased Promega (in-house HiBiT-GPCR construct library, NanoBRET)
T4 sequence (P25089 1-353): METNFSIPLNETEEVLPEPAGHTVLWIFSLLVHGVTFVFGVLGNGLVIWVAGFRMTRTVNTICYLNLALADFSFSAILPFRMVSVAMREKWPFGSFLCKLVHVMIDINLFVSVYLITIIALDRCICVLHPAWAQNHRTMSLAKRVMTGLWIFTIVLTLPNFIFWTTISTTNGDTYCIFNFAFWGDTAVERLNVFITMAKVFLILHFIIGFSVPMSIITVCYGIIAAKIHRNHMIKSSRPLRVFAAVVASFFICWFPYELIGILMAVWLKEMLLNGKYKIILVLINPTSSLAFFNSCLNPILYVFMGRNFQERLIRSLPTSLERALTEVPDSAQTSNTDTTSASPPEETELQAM
Procedure: as §1, §2

CXCR6 = molecular target: T5, CXCR6 (Homo sapiens, UniProt O00574); experiment: NanoBRET screen HiBiT-CXCR6 in HEK293
T5 construct: purchased Promega (in-house HiBiT-GPCR construct library, NanoBRET)
Procedure: as §1, §2

T5 sequence (O00574 whole entry): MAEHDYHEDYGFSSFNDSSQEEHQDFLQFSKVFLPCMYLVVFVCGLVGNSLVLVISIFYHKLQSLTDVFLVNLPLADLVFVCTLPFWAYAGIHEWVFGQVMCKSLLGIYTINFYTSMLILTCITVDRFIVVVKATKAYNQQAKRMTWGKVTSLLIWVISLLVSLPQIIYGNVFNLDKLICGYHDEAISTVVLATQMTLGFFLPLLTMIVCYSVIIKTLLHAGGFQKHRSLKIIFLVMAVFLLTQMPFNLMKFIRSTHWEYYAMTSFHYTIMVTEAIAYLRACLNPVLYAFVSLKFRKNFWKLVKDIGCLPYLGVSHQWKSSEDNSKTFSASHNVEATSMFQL
T3 sequence (P41231 whole entry): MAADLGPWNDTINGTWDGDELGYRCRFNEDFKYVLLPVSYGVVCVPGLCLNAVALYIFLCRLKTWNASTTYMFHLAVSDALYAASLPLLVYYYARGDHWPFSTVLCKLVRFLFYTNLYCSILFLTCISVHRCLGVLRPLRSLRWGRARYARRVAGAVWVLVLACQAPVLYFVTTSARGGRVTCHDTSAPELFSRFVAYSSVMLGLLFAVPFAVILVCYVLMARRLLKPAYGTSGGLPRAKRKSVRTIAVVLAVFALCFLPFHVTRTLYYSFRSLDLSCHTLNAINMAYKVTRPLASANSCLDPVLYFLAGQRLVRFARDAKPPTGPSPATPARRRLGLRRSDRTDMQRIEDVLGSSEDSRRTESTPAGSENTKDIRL

| Compound | NanoBRET Fold Response (CXCR5; CXCR5, tracer 0.1μM) | NanoBRET Fold Response (CXCR5; CXCR5, tracer 1μM) | NanoBRET Fold Response (RXFP3; RXFP3, tracer 0.1μM) | NanoBRET Fold Response (RXFP3; RXFP3, tracer 1μM) | NanoBRET Fold Response (P2RY2; P2RY2, tracer 0.1μM) | NanoBRET Fold Response (P2RY2; P2RY2, tracer 1μM) | NanoBRET Fold Response (FPR3; FPR3, tracer 0.1μM) | NanoBRET Fold Response (FPR3; FPR3, tracer 1μM) | NanoBRET Fold Response (CXCR6; CXCR6, tracer 0.1μM) | NanoBRET Fold Response (CXCR6; CXCR6, tracer 1μM) | also measured |
| --- | --- | --- | --- | --- | --- | --- | --- | --- | --- | --- | --- |
| O=C(CCc1ccc2n1[B-](F)(F)[N+]1=C(c3ccc[nH]3)C=CC1=C2)NCc1ccc(C(=O)NCCOCCC(=O)N[C@@H]2CC[C@@]3(O)[C@H]4Cc5ccc(O)c6c5[C@@]3(CCN4CC3CC3)[C@H]2O6)cc1 [Naltrexone-3-NB590] | 0.57 | 0.57 | 0.98 | 1.05 | 0.90 | 1.10 | 0.82 | 0.92 | 1.02 | 0.91 |  |
| CCCn1c(=O)c2[nH]c(-c3ccc(OCC(=O)NCCNC(=O)CCOCCNC(=O)c4ccc(CNC(=O)CCc5ccc6n5[B-](F)(F)[N+]5=C(c7ccc[nH]7)C=CC5=C6)cc4)cc3)nc2n(CCC)c1=O [XAC-3-NB590] | 1.23 | 0.87 | 0.95 | 0.92 | 0.96 | 0.95 | 0.78 | 1.04 | 1.06 | 1.09 |  |
| CC(C)N(CC[C@H](c1ccccc1)c1cc(CCNC(=O)c2ccc(CNC(=O)CCc3ccc4n3[B-](F)(F)[N+]3=C(c5ccc[nH]5)C=CC3=C4)cc2)ccc1O)C(C)C [Tolterodine-BZ-NB590] | 0.86 | 0.91 | 1.01 | 1.19 | 1.02 | 1.04 | 0.71 | 0.93 | 0.99 | 0.98 |  |
| COc1ccc2[nH]c(-c3ccc(CNC(=O)CCOCCOCCOCCOCCNC(=O)CCc4ccc5n4[B-](F)(F)[N+]4=C(c6ccc[nH]6)C=CC4=C5)cc3)c(CCNC(C)=O)c2n1 [AzomelatoninICO9-2-NB590] |  |  |  |  |  |  |  |  |  |  | NanoBRET Fold Response (CXCR5; 0.1μM tracer): 1.36; NanoBRET Fold Response (CXCR5; 1μM tracer): 0.90; NanoBRET Fold Response (RXFP3; 0.1μM tracer): 0.89; NanoBRET Fold Response (RXFP3; 1μM tracer): 1.22; NanoBRET Fold Response (P2RY2; 0.1μM tracer): 1.06; NanoBRET Fold Response (P2RY2; 1μM tracer): 1.09; NanoBRET Fold Response (FPR3; 0.1μM tracer): 1.46; NanoBRET Fold Response (FPR3; 1μM tracer): 1.02; NanoBRET Fold Response (CXCR6; 0.1μM tracer): 0.98; NanoBRET Fold Response (CXCR6; 1μM tracer): 1.16 |
| CN1CCN(C2=Nc3cc(Cl)ccc3N(CC(=O)NCCOCCOCCOCCOCCNC(=O)CCc3ccc4n3[B-](F)(F)[N+]3=C(c5ccc[nH]5)C=CC3=C4)c3ccccc32)CC1 [Clozapine-c-2-NB590] |  |  |  |  |  |  |  |  |  |  | NanoBRET Fold Response (CXCR5; CXCR5, 0.1μM tracer): 0.98; NanoBRET Fold Response (CXCR5; CXCR5, 1μM tracer): 0.98; NanoBRET Fold Response (RXFP3; RXFP3, 0.1μM tracer): 0.99; NanoBRET Fold Response (RXFP3; RXFP3, 1μM tracer): 1.05; NanoBRET Fold Response (P2RY2; P2RY2, 0.1μM tracer): 0.99; NanoBRET Fold Response (P2RY2; P2RY2, 1μM tracer): 0.84; NanoBRET Fold Response (FPR3; FPR3, 0.1μM tracer): 1.08; NanoBRET Fold Response (FPR3; FPR3, 1μM tracer): 1.01; NanoBRET Fold Response (CXCR6; CXCR6, 0.1μM tracer): 1.01; NanoBRET Fold Response (CXCR6; CXCR6, 1μM tracer): 1.04 |
| COc1ccccc1N1CCN(CCCCN2C(=O)c3ccc(CNC(=O)CCOCCNC(=O)c4ccc(CNC(=O)CCc5ccc6n5[B-](F)(F)[N+]5=C(c7ccc[nH]7)C=CC5=C6)cc4)cc3C2=O)CC1 [NAN-190-3-NB590] | 1.37 | 0.68 | 1.08 | 0.95 | 1.00 | 1.01 | 1.28 | 0.99 | 1.15 | 0.93 |  |
| Cc1nc2n(c(=O)c1CCN1CCC(c3noc4cc(F)ccc34)CC1)CCCC2OC(=O)NCCOCCOCCOCCOCCNC(=O)CCc1ccc2n1[B-](F)(F)[N+]1=C(c3ccc[nH]3)C=CC1=C2 (centres unmarked) [Risperidone-2-NB590] | 1.10 | 0.93 | 1.00 | 1.00 | 1.08 | 0.86 | 0.98 | 0.94 | 1.00 | 1.24 |  |
| COc1ccccc1N1CCN(CCCCN2C(=O)c3ccc(CNC(=O)CCOCCOCCOCCOCCNC(=O)CCc4ccc5n4[B-](F)(F)[N+]4=C(c6ccc[nH]6)C=CC4=C5)cc3C2=O)CC1 [NAN-190-2-NB590] | 1.01 | 1.00 | 1.02 |  |  |  | 1.00 | 0.74 | 0.94 | 1.02 |  |
| CN(CCC=C1c2ccccc2CCc2ccccc21)C(=O)CCOCCOCCOCCOCCNC(=O)CCc1ccc2n1[B-](F)(F)[N+]1=C(c3ccc[nH]3)C=CC1=C2 [Amitriptyline-e-2-NB590] |  |  |  |  |  |  |  |  |  |  | NanoBRET Fold Response (CXCR5; tracer at 1μM): 0.98; NanoBRET Fold Response (P2RY2; tracer at 1μM): 0.98; NanoBRET Fold Response (CXCR6; tracer at 1μM): 0.98 |
